This is an account of results in patent publication US10836725B2, “Modulators of the integrated stress pathway” (Calico Life Sciences LLC, priority 2016, dated 2020).

The assay relates to ATF4 luciferase reporter. As to the kind of experiment: ATF4-Luc assay in HEK293T cells carrying the ATF4 luciferase reporter (in vitro model of VWMD). The class given is cell-based, human. Particulars: Homo sapiens, HEK-293T, 1 μg/mL tunicamycin, 7 hours, luminescence (One Glo). In a few lines:
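Reporter cells were stably generated by retroviral transduction and puromycin selection, then seeded at 30,000 cells/well. Next day, cells received 1 μg/mL tunicamycin with 200 nM test compound for 7 h, and luciferase luminescence was read with a one-step reagent. Values reported as EC50.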
The term EC50 denotes the concentration giving half of the maximal effect. As to `O=C(COc1ccc(Cl)c(F)c1)NC12CC(C(=O)NCc3ccc(F)c(F)c3)(C1)C2` [Compound 185, 3-[2-(4-chloro-3-fluorophenoxy)acetamido]-N-[(3,4-difluorophenyl)methyl]bicyclo[1.1.1]pentane-1-carboxamide], the EC50 is more than 2000 nM. Turning to `COc1ccc(CNC(=O)C23CC(NC(=O)COc4ccc(Cl)c(F)c4)(C2)C3)cc1F` [Compound 173, 3-[2-(4-chloro-3-fluorophenoxy)acetamido]-N-[(3-fluoro-4-methoxyphenyl)methyl]bicyclo[1.1.1]pentane-1-carboxamide], the EC50 was more than 2000 nM.

In the case of `O=C(COc1ccc(Cl)c(F)c1)NC12CC(C(=O)NCc3ccc(C(F)(F)F)cc3)(C1)C2` [Compound 156, 3-[2-(4-chloro-3-fluorophenoxy)acetamido]-N-{[4-(trifluoromethyl)phenyl]methyl}bicyclo[1.1.1]pentane-1-carboxamide], the half-maximal effective concentration (EC50) was less than 250 nM. On to `O=C(COc1ccc(Cl)c(F)c1)NC12CC(C(=O)NCCCc3ccc(F)cc3)(C1)C2` [Compound 204, 3-[2-(4-chloro-3-fluorophenoxy)acetamido]-N-[3-(4-fluorophenyl)propyl]bicyclo[1.1.1]pentane-1-carboxamide], for which the EC50 was less than 250 nM. Next, `O=C(COc1ccc(Cl)c(F)c1)NC12CC(C(=O)NCCc3ccc(F)cc3)(C1)C2` [Compound 239, 3-[2-(4-chloro-3-fluorophenoxy)acetamido]-N-[2-(4-fluorophenyl)ethyl]bicyclo[1.1.1]pentane-1-carboxamide]: more than 2000 nM; `Cc1cc(CNC(=O)C23CC(NC(=O)COc4ccc(Cl)c(F)c4)(C2)C3)c(C)o1` [Compound 160, 3-[2-(4-chloro-3-fluorophenoxy)acetamido]-N-[(2,5-dimethylfuran-3-yl)methyl]bicyclo[1.1.1]pentane-1-carboxamide]: more than 2000 nM; `Cc1cc(CCNC(=O)C23CC(NC(=O)COc4ccc(Cl)c(F)c4)(C2)C3)cc(C)n1` [Compound 211, 3-[2-(4-chloro-3-fluorophenoxy)acetamido]-N-[2-(2,6-dimethylpyridin-4-yl)ethyl]bicyclo[1.1.1]pentane-1-carboxamide]: 1000 to 2000 nM. `CC(C)c1ccc(CNC(=O)C23CC(NC(=O)COc4ccc(Cl)c(F)c4)(C2)C3)cc1` [Compound 227, 3-[2-(4-chloro-3-fluorophenoxy)acetamido]-N-{[4-(propan-2-yl)phenyl]methyl}bicyclo[1.1.1]pentane-1-carboxamide]: the EC50 was more than 2000 nM. Next, `O=C(COc1ccc(Cl)c(F)c1)NC12CCC(C(=O)NCCOc3ccc(Cl)cc3)(CC1)C(O)C2` (stereo not shown) [Compound 107, 4-[2-(4-chloro-3-fluorophenoxy)acetamido]-N-[2-(4-chlorophenoxy)ethyl]-2-hydroxybicyclo[2.2.2]octane-1-carboxamide]: less than 250 nM. Regarding `Cc1cnc(CNC(=O)C23CC(NC(=O)COc4ccc(Cl)c(F)c4)(C2)C3)cn1` [Compound 228, 3-[2-(4-chloro-3-fluorophenoxy)acetamido]-N-[(5-methylpyrazin-2-yl)methyl]bicyclo[1.1.1]pentane-1-carboxamide], the EC50 was more than 2000 nM. Take `Cc1nn(C)cc1CNC(=O)C12CC(NC(=O)COc3ccc(Cl)c(F)c3)(C1)C2` [Compound 152, 3-[2-(4-chloro-3-fluorophenoxy)acetamido]-N-[(1,3-dimethyl-1H-pyrazol-4-yl)methyl]bicyclo[1.1.1]pentane-1-carboxamide]: the EC50 was more than 2000 nM. As to `O=C(COc1ccc(Cl)c(F)c1)NC12CCC(C(=O)NCc3cccc(C(F)(F)F)c3)(CC1)C(O)C2` (stereo not shown) [Compound 135, 4-[2-(4-chloro-3-fluorophenoxy)acetamido]-2-hydroxy-N-{[3-(trifluoromethyl)phenyl]methyl}bicyclo[2.2.2]octane-1-carboxamide], the EC50 is less than 250 nM. In the case of `O=C(COc1ccc(F)cc1)NC12CCC(C(=O)NCc3ccc(C(F)(F)F)cn3)(CC1)C(O)C2` (stereo not shown) [Compound 122, 4-[2-(4-fluorophenoxy)acetamido]-2-hydroxy-N-{[5-(trifluoromethyl)pyridin-2-yl]methyl}bicyclo[2.2.2]octane-1-carboxamide], the EC50 is less than 250 nM.

In the case of `Cc1occc1CNC(=O)C12CC(NC(=O)COc3ccc(Cl)c(F)c3)(C1)C2` [Compound 244, 3-[2-(4-chloro-3-fluorophenoxy)acetamido]-N-[(2-methylfuran-3-yl)methyl]bicyclo[1.1.1]pentane-1-carboxamide], the EC50 was more than 2000 nM. For `CCc1csc(CCNC(=O)C23CC(NC(=O)COc4ccc(Cl)c(F)c4)(C2)C3)n1` [Compound 230, 3-[2-(4-chloro-3-fluorophenoxy)acetamido]-N-[2-(4-ethyl-1,3-thiazol-2-yl)ethyl]bicyclo[1.1.1]pentane-1-carboxamide], the concentration giving a half-maximal response (EC50) is more than 2000 nM. For `O=C(COc1ccc(Cl)c(F)c1)NC12CC(C(=O)NCc3ccc(OC(F)F)cn3)(C1)C2` [Compound 147, 3-[2-(4-chloro-3-fluorophenoxy)acetamido]-N-{[5-(difluoromethoxy)pyridin-2-yl]methyl}bicyclo[1.1.1]pentane-1-carboxamide], the EC50 lay within 250 to 500 nM.

In the case of `CC(C)c1cc(CNC(=O)C23CCC(NC(=O)COc4ccc(Cl)c(F)c4)(CC2)CC3O)on1` (stereo not shown) [Compound 109, 4-[2-(4-chloro-3-fluorophenoxy)acetamido]-2-hydroxy-N-{[3-(propan-2-yl)-1,2-oxazol-5-yl]methyl}bicyclo[2.2.2]octane-1-carboxamide], the EC50 was 500 to 1000 nM. As for `O=C(COc1ccc(Cl)c(F)c1)NC12CCC(C(=O)NCCc3ccc(C(F)(F)F)cc3)(CC1)C(O)C2` (stereo not shown) [Compound 138, 4-[2-(4-chloro-3-fluorophenoxy)acetamido]-2-hydroxy-N-{2-[4-(trifluoromethyl)phenyl]ethyl}bicyclo[2.2.2]octane-1-carboxamide], the EC50 was less than 250 nM. Regarding `O=C(COc1ccc(Cl)c(F)c1)NC12CC(C(=O)NCc3ccc(C(F)(F)F)nc3)(C1)C2` [Compound 149, 3-[2-(4-chloro-3-fluorophenoxy)acetamido]-N-{[6-(trifluoromethyl)pyridin-3-yl]methyl}bicyclo[1.1.1]pentane-1-carboxamide], the EC50 fell in the range of 250 to 500 nM. In the case of `O=C(COc1ccc(Cl)c(F)c1)NC12CCC(C(=O)NCc3cnccn3)(CC1)C(O)C2` (stereo not shown) [Compound 144] it was more than 2000 nM. Take `CN(C)c1ccc(CNC(=O)C23CCC(NC(=O)COc4ccc(Cl)c(F)c4)(CC2)CC3O)cc1` (stereo not shown) [Compound 134, 4-[2-(4-chloro-3-fluorophenoxy)acetamido]-N-{[4-(dimethylamino)phenyl]methyl}-2-hydroxybicyclo[2.2.2]octane-1-carboxamide]: the EC50 was less than 250 nM.

For `CN(Cc1ccc(C(F)(F)F)cc1)C(=O)C12CCC(NC(=O)COc3ccc(Cl)c(F)c3)(CC1)CC2O` (stereo not shown) [Compound 145, 4-[2-(4-chloro-3-fluorophenoxy)acetamido]-2-hydroxy-N-methyl-N-{[4-(trifluoromethyl)phenyl]methyl}bicyclo[2.2.2]octane-1-carboxamide], the EC50 is less than 250 nM.

For `Cc1ccc(CNC(=O)C23CC(NC(=O)COc4ccc(Cl)c(F)c4)(C2)C3)cn1` [Compound 155, 3-[2-(4-chloro-3-fluorophenoxy)acetamido]-N-[(6-methylpyridin-3-yl)methyl]bicyclo[1.1.1]pentane-1-carboxamide], the EC50 is more than 2000 nM. With `CC(NC(=O)C12CC(NC(=O)COc3ccc(Cl)c(F)c3)(C1)C2)c1ccccc1` (stereo not shown) [Compound 172, 3-[2-(4-chloro-3-fluorophenoxy)acetamido]-N-(1-phenylethyl)bicyclo[1.1.1]pentane-1-carboxamide], the EC50 is more than 2000 nM. Take `O=C(COc1ccc(Cl)c(F)c1)NC12CC(C(=O)NCc3cnoc3)(C1)C2` [Compound 170, 3-[2-(4-chloro-3-fluorophenoxy)acetamido]-N-[(1,2-oxazol-4-yl)methyl]bicyclo[1.1.1]pentane-1-carboxamide]: the EC50 is more than 2000 nM. Consider `O=C(COc1ccc(Cl)c(F)c1)NC12CC(C(=O)NCCc3ccccn3)(C1)C2` [Compound 153, 3-[2-(4-chloro-3-fluorophenoxy)acetamido]-N-[2-(pyridin-2-yl)ethyl]bicyclo[1.1.1]pentane-1-carboxamide], for which the EC50 was more than 2000 nM. For `O=C(COc1ccc(Cl)c(F)c1)NC12CCC(C(=O)NCc3cccc(OC(F)(F)F)c3)(CC1)C(O)C2` (stereo not shown) [Compound 136, 4-[2-(4-chloro-3-fluorophenoxy)acetamido]-2-hydroxy-N-{[3-(trifluoromethoxy)phenyl]methyl}bicyclo[2.2.2]octane-1-carboxamide], the half-maximal effective concentration (EC50) lay in the range of 500 to 1000 nM. Regarding `Cc1cnc(CNC(=O)C23CCC(NC(=O)COc4ccc(Cl)c(F)c4)(CC2)CC3O)cn1` (stereo not shown) [Compound 119, 4-[2-(4-chloro-3-fluorophenoxy)acetamido]-2-hydroxy-N-[(5-methylpyrazin-2-yl)methyl]bicyclo[2.2.2]octane-1-carboxamide], the 50% effective concentration (EC50) lay within 1000 to 2000 nM.
